Literature values in PMC7904743, “WIDOCK: a reactive docking protocol for virtual screening of covalent inhibitors” (Journal of Computer-Aided Molecular Design, 2021).
Where two headings read alike, the source gives them in different places.

Experiments:
[1] = thiol reactivity, cited from earlier work
[2] = system: NUDT7; conditions: protein labeling at 200 μM; experimental actives if % labeling higher than 50%; cited from earlier work
[3] = system: OTUB2; conditions: experimental actives if % labeling higher than 50%, cited from earlier work
[4] = natural log of average kinetic rate constant
[5] = natural log of average rate constant
[6] = natural log of average rate constant k
[7] = natural logarithm of average rate constant

Row | SMILES | ln(avg k) [1, 4] | ln(avg k) [1, 5] | NUDT7 % labeling [2] [%] | OTUB2 % labeling ([3]; OTUB2 protein labeling) [%] | ln(avg k) [1, 6] | ln(avg k) [1, 7] | OTUB2 % labeling [3] [%]
1 | CC(c1ccc(F)cc1)N(C)C(=O)CCl (stereo not shown) [PCM-0102783, CC(c1ccc(F)cc1)N(C)C(=O)CCl] | -16.224 | -16.224 | 19 | 0 | – | – | –
2 | O=C(CCl)N1CCN(Cc2ccc3c(c2)CCO3)CC1 [PCM-0102814, O=C(CCl)N1CCN(Cc2ccc3c(c2)CCO3)CC1] | -15.537 | -15.537 | 0 | 0 | – | – | –
3 | CC(NC(=O)CCl)c1ccc(F)cc1F (stereo not shown) [PCM-0103035, CC(NC(=O)CCl)c1ccc(F)cc1F] | -15.881 | -15.881 | 15 | 34 | – | – | –
4 | CC1CCCC(NC(=O)NC(=O)CCl)C1C (stereo not shown) [PCM-0102332, CC1CCCC(NC(=O)NC(=O)CCl)C1C] | – | – | 0 | – | -15.913 | -15.913 | 0
5 | Cc1cc(C)cc(NC(=O)CCl)c1 [PCM-0102394, Cc1cc(C)cc(NC(=O)CCl)c1] | – | – | 0 | – | -15.891 | -15.891 | 22
6 | CC(=O)c1cccc(NC(=O)CCl)c1 [PCM-0102965, CC(=O)c1cccc(NC(=O)CCl)c1] | -15.751 | -15.751 | 0 | 36 | – | – | –
7 | O=C(CCl)NCC#Cc1cccc(C(F)(F)F)c1 [PCM-0103011, O=C(CCl)NCC#Cc1cccc(C(F)(F)F)c1] | -16.650 | -16.650 | 0 | 84 | – | – | –
8 | CC(c1cc2ccccc2o1)N(C)C(=O)CCl (stereo not shown) [PCM-0102971, CC(c1cc2ccccc2o1)N(C)C(=O)CCl] | -16.092 | -16.092 | 66 | 0 | – | – | –
9 | O=C(CCl)NCC1CCCO1 (stereo not shown) [PCM-0102356, O=C(CCl)NCC1CCCO1] | – | – | 0 | – | -16.672 | -16.672 | 5
10 | O=C(CCl)N1N=C(c2cccs2)CC1c1ccco1 (stereo not shown) [PCM-0102295, O=C(CCl)N1N=C(c2cccs2)CC1c1ccco1] | – | – | 46 | – | -14.545 | -14.545 | 6
11 | O=C(CCl)Nc1ccc(Cl)c(Cl)c1 [PCM-0102112, O=C(CCl)Nc1ccc(Cl)c(Cl)c1] | – | – | 18 | – | -15.433 | -15.433 | 30
12 | O=C(CCl)Nc1cc(Cl)ccc1-n1cncn1 [PCM-0102258, O=C(CCl)Nc1cc(Cl)ccc1-n1cncn1] | – | – | 21 | – | -15.839 | -15.839 | 0
13 | CN(Cc1ccc(Br)cc1)C(=O)CCl [PCM-0102401, CN(Cc1ccc(Br)cc1)C(=O)CCl] | – | – | 58 | – | -15.733 | -15.733 | 0
14 | Cc1ccc(NC(=O)CCl)cc1C [PCM-0102339, Cc1ccc(NC(=O)CCl)cc1C] | – | – | 18 | – | -15.536 | -15.536 | 82
15 | O=C(CCl)N1CCN(c2cnccn2)CC1 [PCM-0102889, O=C(CCl)N1CCN(c2cnccn2)CC1] | -15.833 | -15.833 | 0 | 0 | – | – | –
16 | CC(C)C(C#N)N1CCN(C(=O)CCl)CC1 (stereo not shown) [PCM-0102263, CC(C)C(C#N)N1CCN(C(=O)CCl)CC1] | – | – | 17 | – | -14.716 | -14.716 | 31
17 | O=C(Nc1ccccc1)C1CCN(C(=O)CCl)CC1 [PCM-0102219, O=C(Nc1ccccc1)C1CCN(C(=O)CCl)CC1] | – | – | 0 | – | -15.089 | -15.089 | 0
18 | CC1CCCN(C(=O)CCl)C1 (stereo not shown) [PCM-0102867, CC1CCCN(C(=O)CCl)C1] | -16.989 | -16.989 | 0 | 0 | – | – | –

Row | SMILES | ln(avg k) [1, 4] | ln(avg k) [1, 5] | NUDT7 % labeling [2] [%] | OTUB2 % labeling ([3]; OTUB2 protein labeling) [%] | ln(avg k) [1, 6] | ln(avg k) [1, 7] | OTUB2 % labeling [3] [%]
19 | CN(Cc1ccc(Cl)s1)C(=O)CCl [PCM-0102898, CN(Cc1ccc(Cl)s1)C(=O)CCl] | -15.575 | -15.575 | 29 | 0 | – | – | –
20 | CNC(=O)c1cccc(NC(=O)CCl)c1 [PCM-0102113, CNC(=O)c1cccc(NC(=O)CCl)c1] | – | – | 0 | – | -15.492 | -15.492 | 0
21 | N#CC1(NC(=O)CCl)CCCCCC1 [PCM-0102465, N#CC1(NC(=O)CCl)CCCCCC1] | – | – | 0 | – | -16.080 | -16.080 | 0
22 | CC(C)N(C(=O)CCl)C(C)C [PCM-0103023, CC(C)N(C(=O)CCl)C(C)C] | -17.155 | -17.155 | 0 | 0 | – | – | –
23 | O=C(CCl)N1CCCCC1 [PCM-0102514, O=C(CCl)N1CCCCC1] | – | – | 0 | – | -16.289 | -16.289 | 0
24 | O=C(CCl)N1N=C(c2ccco2)CC1c1cccs1 (stereo not shown) [PCM-0102182, O=C(CCl)N1N=C(c2ccco2)CC1c1cccs1] | – | – | – | – | – | -14.540 | 0
25 | O=C(CCl)Nc1nncs1 [PCM-0102427, O=C(CCl)Nc1nncs1] | – | – | – | – | – | -16.300 | 0
26 | Cc1nc(NC(=O)CCl)sc1C [PCM-0102124, Cc1nc(NC(=O)CCl)sc1C] | – | – | – | – | – | -15.463 | 0
27 | O=C(CCl)N(C1CC1)C1CCCc2ccccc21 (stereo not shown) [PCM-0102774, O=C(CCl)N(C1CC1)C1CCCc2ccccc21] | -16.197 | – | – | 0 | – | – | –
28 | Cc1ccccc1CN1CCCN(C(=O)CCl)CC1 [PCM-0102911, Cc1ccccc1CN1CCCN(C(=O)CCl)CC1] | – | – | 0 | 0 | – | – | –
29 | O=C(CCl)NC1CCC2(CC1)OCCO2 [PCM-0102820, O=C(CCl)NC1CCC2(CC1)OCCO2] | -16.468 | – | – | 13 | – | – | –
30 | O=C(CCl)N1CCC2CCCCC2C1 (stereo not shown) [PCM-0102474, O=C(CCl)N1CCC2CCCCC2C1] | – | – | – | – | – | -15.859 | 0
31 | Cc1ccc(CN2CCCN(C(=O)CCl)CC2)cc1 [PCM-0103056, Cc1ccc(CN2CCCN(C(=O)CCl)CC2)cc1] | – | – | 0 | 0 | – | – | –
32 | C=CC(=O)Nc1nc(-c2ccc(O)cc2)cs1 [PCM-0102884, C=CC(=O)Nc1nc(-c2ccc(O)cc2)cs1] | -17.011 | – | – | 0 | – | – | –
33 | CN(Cc1cccc(Cl)c1)C(=O)CCl [PCM-0102976, CN(Cc1cccc(Cl)c1)C(=O)CCl] | -16.166 | – | – | 0 | – | – | –
34 | O=C(CCl)Nc1ccc2c(c1)NC(=O)CO2 [PCM-0102890, O=C(CCl)Nc1ccc2c(c1)NC(=O)CO2] | – | – | 8 | 32 | – | – | –
35 | O=C(CCl)NCC#Cc1ccccc1 [PCM-0103007, O=C(CCl)NCC#Cc1ccccc1] | -16.727 | – | – | 60 | – | – | –
36 | Cc1ccc(NC(=O)CCl)c(Cl)c1 [PCM-0102408, Cc1ccc(NC(=O)CCl)c(Cl)c1] | – | – | 18 | – | -16.426 | – | –
